In patent US5149717A, “Alkanophenones useful for treating allergies” (Ciba-Geigy Corporation, priority 1988, dated 1992) one finds IC50 data, which are given here for 1 molecule.

Assay [1] addresses phospholipase A2 obtained from human leucocytes. As to the kind of experiment: In vitro test to determine the inhibition of phospholipase A2 obtained from human leucocytes. It is filed as biochemical. Conditions: under the described test conditions.
Description: Neutrophilic polymorpho-nuclear human leucocytes are isolated from "Buffy coats" by multi-step fractional sedimentation and are deep-frozen. The phospholipase A2 is extracted from the cell suspension by homogenisation with the addition of ice-cold 0.36N H2 SO4 in 2N NaCl and the supernatant obtained after centrifugation at 10,000×g is dialysed against sodium acetate buffer pH 4.5.
In order to determine the enzyme activity, enzyme (10-30 μg of protein) is incubated at 37° for 1 hour in 0.1M tris/HCl buffer pH 7 with the addition of 1 mmol of CaCl2 and substrate consisting of phospholipids (2 μm) of Escherichia coli radioactively labelled biosynthetically with ^14 C-oleic acid. The reaction is stopped by the addition of Dole reagent (isopropanol/heptane/1N H2 SO4 40:10:1, v/v) and the ^14 C-oleic acid freed selectively by phospholipase A2 is extracted. […]
In order to detect an inhibitory action of test substances on phospholipase A2, the test substances are added to the incubation mixture in the form of solutions in water, dimethyl sulfoxide (final concentration in the batch up to 5%, v/v) or ethanol (final concentration in the batch up to 2.5%, v/v). […] The IC50 is determined graphically by plotting the percentage inhibition on the ordinate against the log of the concentration (μm) on the abscissa.
Assay [2] concerns the target phospholipase C obtained from human thrombocytes. As to the kind of experiment: In vitro test to determine the inhibition of phospholipase C obtained from human thrombocytes. Conditions: under the described test conditions. The assay is classed as biochemical. The method, then: Human thrombocytes are obtained from "Buffy coats" by fractional centrifugation and are then deep-frozen. The phospholipase C is freed by ultrasound treatment of the cell suspension and after ultracentrifugation (150,000×g for 1 hour) is present in soluble form in the supernatant.
In order to determine the enzyme activity, enzyme (20-100 μg of protein) is incubated at 37° for 5 minutes in 0.025M tris/maleate buffer pH 6 with the addition of 0.2 mmol of CaCl2 and 0.02 mmol of radioactively labelled substrate, phosphatidyl-[^14 C]-inositol. The reaction is stopped by shaking with CHCl3 /CH3 OH 2:1 (v/v), in the course of which unused substrate is extracted into the organic phase, while the reaction product, ^14 C-inositol phosphate, remains in the aqueous phase and can be measured by radiometry of an aliquot.
In order to detect an inhibitory action of test substances on phospholipase C, the test substances are added to the incubation mixture in the form of solutions in water, dimethyl sulfoxide (final concentration in the batch up to 5%, v/v) or ethanol (final concentration in the batch up to 2.5%, v/v). […] The IC50 is determined graphically by plotting the percentage inhibition on the ordinate against the log of the concentration (μm) on the abscissa.

pIC50: −log10 of the molar value. Structures can show the parent of a compound that is named as a salt.

As a reminder, the pIC50 is the negative decadic logarithm of the IC50, by convention in mol/L. A lower pIC50 goes with a high IC50. As for `CCN(CC)CCCC(C)Nc1c2ccc(Cl)cc2nc2ccc(OC)cc12` (centres unmarked) [MEPACRINE, quinacrin hydrochloride], the negative logarithm of the IC50 (pIC50) was 2.80 in assay [1] and 4.70 in assay [2].
